Data published in patent US12077503B2, “Substituted cyclic amides and their use as herbicides” (FMC CORPORATION, priority 2015, dated 2024).

Tests used:
Type in all cases: in vivo
[1] = test system: ragweed (common ragweed, Ambrosia elatior); assay: Test A preemergence; conditions: Ambrosia artemisiifolia, pre-emergence, 240 h; for pest or weed control at 125 g/ha: 125 g ai/ha, preemergence, 0 to 100 scale where 0 is no effect and 100 is complete control, read-out: Ragweed plant response rating; for pest or weed control at 500 g/ha: 500 g ai/ha, Preemergence, visual injury vs untreated controls after approximately 10 d, read-out: Ragweed plant response rating (0 to 100 scale where 0 is no effect and 100 is complete control)
Method in brief: (§1)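 Compounds were formulated in a non-phytotoxic solvent mixture with surfactant and applied as a preemergence directed soil spray after seeding, or sprayed postemergence over plants 2 to 10 cm tall at the one- to two-leaf stage. Evaluation after about 10 d compared treated with untreated controls, using a scale from 0 (no effect) to 100 (complete control).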

[2] = test system: ryegrass, Italian (Italian ryegrass, Lolium multiflorum); assay: Test A preemergence; conditions: Lolium multiflorum, pre-emergence, 240 h; for pest or weed control at 125 g/ha: 125 g ai/ha, preemergence, 0 to 100 scale where 0 is no effect and 100 is complete control, read-out: Ryegrass, Italian plant response rating; for pest or weed control at 500 g/ha: 500 g ai/ha, Preemergence, visual injury vs untreated controls after approximately 10 d, read-out: Ryegrass, Italian plant response rating (0 to 100 scale where 0 is no effect and 100 is complete control)
Method in brief: as §1

Kochia (Kochia scoparia) [3] = assay: Test A preemergence; conditions: Bassia scoparia, pre-emergence, 240 h; for pest or weed control at 125 g/ha: 125 g ai/ha, preemergence, 0 to 100 scale where 0 is no effect and 100 is complete control, read-out: Kochia plant response rating; for pest or weed control at 500 g/ha: 500 g ai/ha, Preemergence, visual injury vs untreated controls after approximately 10 d, read-out: Kochia plant response rating (0 to 100 scale where 0 is no effect and 100 is complete control)
Method in brief: as §1

[4] = test system: giant foxtail (Setaria faberii); assay: Test A preemergence; conditions: Setaria faberi, pre-emergence, 240 h; for pest or weed control at 125 g/ha: 125 g ai/ha, preemergence, 0 to 100 scale where 0 is no effect and 100 is complete control, read-out: Foxtail, Giant plant response rating; for pest or weed control at 500 g/ha: 500 g ai/ha, Preemergence, visual injury vs untreated controls after approximately 10 d, read-out: Foxtail, Giant plant response rating (0 to 100 scale where 0 is no effect and 100 is complete control)
Method in brief: as §1

[5] = test system: pigweed (Amaranthus retroflexus); assay: Test A preemergence; conditions: Amaranthus retroflexus, pre-emergence, 240 h; for pest or weed control at 125 g/ha: 125 g ai/ha, preemergence, 0 to 100 scale where 0 is no effect and 100 is complete control, read-out: Pigweed plant response rating; for pest or weed control at 500 g/ha: 500 g ai/ha, Preemergence, visual injury vs untreated controls after approximately 10 d, read-out: Pigweed plant response rating (0 to 100 scale where 0 is no effect and 100 is complete control)
[6] = test system: barnyardgrass (Echinochloa crus-galli); assay: Test A preemergence; conditions: Echinochloa crus-galli, pre-emergence, 240 h; for pest or weed control at 125 g/ha: 125 g ai/ha, preemergence, 0 to 100 scale where 0 is no effect and 100 is complete control, read-out: Barnyardgrass plant response rating; for pest or weed control at 500 g/ha: 500 g ai/ha, Preemergence, visual injury vs untreated controls after approximately 10 d, read-out: Barnyardgrass plant response rating (0 to 100 scale where 0 is no effect and 100 is complete control)
Method in brief: as §1

[7] = test system: ragweed (common ragweed, Ambrosia elatior); assay: Test A postemergence; conditions: Ambrosia artemisiifolia, post-emergence, 240 h, 125 g ai/ha, postemergence, visual injury rating after approximately 10 d; read-out: Ragweed plant response rating (0 to 100 scale, 0 no effect, 100 complete control)
Method in brief: as §1

corn (Zea mays) = assay: Test A postemergence; conditions: Zea mays, post-emergence, 240 h, 125 g ai/ha, postemergence, visual injury rating after approximately 10 d; read-out: Corn plant response rating (0 to 100 scale, 0 no effect, 100 complete control)
Method in brief: as §1

[8] = test system: ryegrass, Italian (Italian ryegrass, Lolium multiflorum); assay: Test A postemergence; conditions: Lolium multiflorum, post-emergence, 240 h, 125 g ai/ha, postemergence, visual injury rating after approximately 10 d; read-out: Ryegrass, Italian plant response rating (0 to 100 scale, 0 no effect, 100 complete control)
Method in brief: as §1

[9] = test system: blackgrass (Alopecurus myosuroides); assay: Test A postemergence; conditions: Alopecurus myosuroides, post-emergence, 240 h, 125 g ai/ha, postemergence, visual injury rating after approximately 10 d; read-out: Blackgrass plant response rating (0 to 100 scale, 0 no effect, 100 complete control)
Method in brief: as §1

[10] = test system: wheat (Triticum aestivum); assay: Test A postemergence; conditions: Triticum aestivum, post-emergence, 240 h, 125 g ai/ha, postemergence, visual injury rating after approximately 10 d; read-out: Wheat plant response rating (0 to 100 scale, 0 no effect, 100 complete control)
Method in brief: as §1

Kochia (Kochia scoparia) [11] = assay: Test A postemergence; conditions: Bassia scoparia, post-emergence, 240 h, 125 g ai/ha, postemergence, visual injury rating after approximately 10 d; read-out: Kochia plant response rating (0 to 100 scale, 0 no effect, 100 complete control)
Method in brief: as §1

[12] = test system: giant foxtail (Setaria faberii); assay: Test A postemergence; conditions: Setaria faberi, post-emergence, 240 h, 125 g ai/ha, postemergence, visual injury rating after approximately 10 d; read-out: Foxtail, Giant plant response rating (0 to 100 scale, 0 no effect, 100 complete control)
Method in brief: as §1

[13] = test system: pigweed (Amaranthus retroflexus); assay: Test A postemergence; conditions: Amaranthus retroflexus, post-emergence, 240 h, 125 g ai/ha, postemergence, visual injury rating after approximately 10 d; read-out: Pigweed plant response rating (0 to 100 scale, 0 no effect, 100 complete control)
Method in brief: as §1

[14] = test system: Galium (catchweed bedstraw, Galium aparine); assay: Test A postemergence; conditions: Galium, post-emergence, 240 h, 125 g ai/ha, postemergence, visual injury rating after approximately 10 d; read-out: Galium plant response rating (0 to 100 scale, 0 no effect, 100 complete control)
Method in brief: as §1

[15] = test system: barnyardgrass (Echinochloa crus-galli); assay: Test A postemergence; conditions: Echinochloa crus-galli, post-emergence, 240 h, 125 g ai/ha, postemergence, visual injury rating after approximately 10 d; read-out: Barnyardgrass plant response rating (0 to 100 scale, 0 no effect, 100 complete control)
Method in brief: as §1

O=C1NC[C@H](c2ccc3c(c2)CCCO3)[C@H]1C(=O)Nc1ccccc1F [Compound 885]
pest or weed control at 125 g/ha [1]: 0%
pest or weed control at 500 g/ha [1]: 0%
pest or weed control at 125 g/ha [2]: 0%
pest or weed control at 500 g/ha [2]: 20%
pest or weed control at 125 g/ha (Kochia (Kochia scoparia) [3]): 0%
pest or weed control at 500 g/ha (Kochia (Kochia scoparia) [3]): 0%
pest or weed control at 125 g/ha [4]: 50%
pest or weed control at 500 g/ha [4]: 80%
pest or weed control at 125 g/ha [5]: 0%
pest or weed control at 500 g/ha [5]: 0%
pest or weed control at 125 g/ha [6]: 70%
pest or weed control at 500 g/ha [6]: 90%
pest or weed control at 125 g/ha [7]: 0%
plant injury at 125 g/ha (corn (Zea mays)): 0%
pest or weed control at 125 g/ha [8]: 0%
pest or weed control at 125 g/ha [9]: 0%
plant injury at 125 g/ha [10]: 0%
pest or weed control at 125 g/ha (Kochia (Kochia scoparia) [11]): 0%
pest or weed control at 125 g/ha [12]: 40%
pest or weed control at 125 g/ha [13]: 0%
pest or weed control at 125 g/ha [14]: 20%
pest or weed control at 125 g/ha [15]: 70%

Cc1c(F)ccc([C@H]2CN(C)C(=O)[C@@H]2C(=O)Nc2ccccc2C(F)(F)F)c1F [Compound 841]
pest or weed control at 125 g/ha [1]: 0%
pest or weed control at 500 g/ha [1]: 0%
pest or weed control at 125 g/ha [2]: 0%
pest or weed control at 500 g/ha [2]: 40%
pest or weed control at 125 g/ha (Kochia (Kochia scoparia) [3]): 40%
pest or weed control at 500 g/ha (Kochia (Kochia scoparia) [3]): 60%
pest or weed control at 125 g/ha [4]: 90%
pest or weed control at 500 g/ha [4]: 90%
pest or weed control at 125 g/ha [5]: 0%
pest or weed control at 500 g/ha [5]: 30%
pest or weed control at 125 g/ha [6]: 90%
pest or weed control at 500 g/ha [6]: 100%
pest or weed control at 125 g/ha [7]: 0%
plant injury at 125 g/ha (corn (Zea mays)): 0%
pest or weed control at 125 g/ha [8]: 20%
pest or weed control at 125 g/ha [9]: 30%
plant injury at 125 g/ha [10]: 0%
pest or weed control at 125 g/ha (Kochia (Kochia scoparia) [11]): 30%
pest or weed control at 125 g/ha [12]: 90%
pest or weed control at 125 g/ha [13]: 0%
pest or weed control at 125 g/ha [14]: 40%
pest or weed control at 125 g/ha [15]: 80%

COc1c(F)ccc([C@H]2CN(C)C(=O)[C@@H]2C(=O)Nc2cccc(F)c2F)c1Cl [Compound 893]
pest or weed control at 125 g/ha [1]: 40%
pest or weed control at 500 g/ha [1]: 70%
pest or weed control at 125 g/ha [2]: 40%
pest or weed control at 500 g/ha [2]: 90%
pest or weed control at 125 g/ha (Kochia (Kochia scoparia) [3]): 80%
pest or weed control at 500 g/ha (Kochia (Kochia scoparia) [3]): 90%
pest or weed control at 125 g/ha [4]: 90%
pest or weed control at 500 g/ha [4]: 90%
pest or weed control at 125 g/ha [5]: 30%
pest or weed control at 500 g/ha [5]: 50%
pest or weed control at 125 g/ha [6]: 90%
pest or weed control at 500 g/ha [6]: 100%
pest or weed control at 125 g/ha [7]: 30%
plant injury at 125 g/ha (corn (Zea mays)): 80%
pest or weed control at 125 g/ha [8]: 60%
pest or weed control at 125 g/ha [9]: 30%
plant injury at 125 g/ha [10]: 30%
pest or weed control at 125 g/ha (Kochia (Kochia scoparia) [11]): 60%
pest or weed control at 125 g/ha [12]: 90%
pest or weed control at 125 g/ha [13]: 20%
pest or weed control at 125 g/ha [14]: 50%
pest or weed control at 125 g/ha [15]: 100%
